Experimental findings from PubChem BioAssay (NCI) are described below.

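Method: 48-hour compound exposure of cells in 96-well plates, five concentrations, linear interpolation of endpoints. TGI: total growth inhibition.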

Some test systems named below: LOX IMVI melanoma; T-47D breast; LXFL 529 NSCLC; DLD-1 colon; DMS 114 small cell lung; SNB-78 CNS; HOP-18 NSCLC; M19-MEL melanoma; XF 498 CNS; KM20L2 colon; DMS 273 small cell lung.
Holding throughout (assay): inhibition of tumour cell growth, NCI panel, 48 h

`O=C(O)c1ccc(P(=O)(O)c2ccc(C(=O)O)cc2Br)c(Br)c1` gave a TGI in the experiment with LOX IMVI melanoma greater than 100 µM.
Same read-out and setting: the result for `O=c1[nH]n(Cc2ccccc2Cl)c2ccc([N+](=O)[O-])cc12` reads greater than 100 µM.
`COC(=O)C(Cc1cn(C(C)=O)c2ccccc12)P(=O)(OC)OC` (stereo not drawn) had a TGI with T-47D breast greater than 100 µM.
With `Nc1nc(Cl)c(N)c(NCC2(CO)CCC2)n1`, the TGI in the experiment with LOX IMVI melanoma and with T-47D breast was greater than 100 µM each time.
Turning to `CNc1c2cccc(C)c2nc2c(C(=O)NCCN(C)C)cccc12`, the figures for the TGI in the experiment on LOX IMVI melanoma and with T-47D breast were 0.391 µM and 0.675 µM, respectively.
On to `COc1cc(C2SCC(=O)N2c2ccccc2Cl)cc(OC)c1OC` (stereo not drawn), for which, in the experiment with LOX IMVI melanoma, the TGI was greater than 100 µM.
Consider `CC(=O)O[C@@H]1CC[C@@]2(C)C(CC[C@H]3[C@@H]4CC[C@H]([C@H](C)CCc5nc6ccc(C)cc6[nH]5)[C@@]4(C)CC[C@@H]32)C1` (stereo partly drawn), for which the figures for the TGI in the experiment on LOX IMVI melanoma and in the experiment with T-47D breast were greater than 100 µM and 4.63 µM, respectively.
On the same counts, the results for `CCC(C)C(C(=O)N/N=C1/SCC(=O)N1c1ccccc1)C(=O)N/N=C1/SCC(=O)N1c1ccccc1` (stereo not drawn) are greater than 100 µM and greater than 100 µM.
On the same counts, the results for `O=C(c1cc(Cl)cc(Cl)c1)N(C(=O)N1CCN(c2ccccc2)CC1)c1ccccc1` are greater than 100 µM and greater than 100 µM.
Turning to `OC(CCN1CCCCC1)(c1ccccc1)c1ccccc1`, the TGI in the experiment on LOX IMVI melanoma and in the experiment on T-47D breast was greater than 100 µM each time.
`CN1C2CCC1CC(CCOC(c1ccc(F)cc1)c1ccc(F)cc1)C2` (stereo not drawn): the values for the TGI in the experiment on LOX IMVI melanoma and with T-47D breast were 30.3 µM and 39.2 µM, respectively.
For `Cc1cc(C)nc(NS(=O)(=O)c2ccc(Nc3c4ccccc4nc4c(C(=O)NNCCO)cccc34)cc2)n1`, in that order: greater than 100 µM and greater than 100 µM.
In the experiment on LOX IMVI melanoma, `Cc1ccc2nc(CN3CCCC(O)C3)cc(=O)n2c1` (stereo not drawn) had a TGI greater than 100 µM.
As for `COC1CC(C)C(OC)C2=CC(=O)C=C(NC(=O)/C(C)=C/C=C\C(C)C(OC(N)=O)/C(C)=C\C(C)C1OC)C2=O` (stereo not drawn), the TGI in the experiment with LXFL 529 NSCLC was 1.8 µM; in the experiment with DLD-1 colon, 2.58 µM; in the experiment with DMS 114 small cell lung, 17.8 µM; in the experiment on LOX IMVI melanoma it was 3.66 µM; in the experiment on SNB-78 CNS it was 13.6 µM; in the experiment on HOP-18 NSCLC, 15.7 µM. Further, the values for the TGI in the experiment with M19-MEL melanoma and in the experiment on XF 498 CNS were 6.62 µM and 3.13 µM, respectively.
For `c1ccc2c(C3CCN(CCN4CCOCC4)C3)c[nH]c2c1` (stereo not drawn), the TGI in the experiment with LOX IMVI melanoma and with T-47D breast was greater than 100 µM each time.
For the compound `CO[C@H]1c2cccc3cccc(c23)[C@@H]1n1[nH]c(=O)n(C(C)(C)C)c1=O`, the TGI with LOX IMVI melanoma and with T-47D breast was greater than 100 µM in each case.
Turning to `CC1=NN(C(=O)CC(=O)Nc2ccc(C)cc2)C(=O)C1N=Nc1ccc(C(=O)O)cc1` (stereo not drawn), the TGI in the experiment with LOX IMVI melanoma and in the experiment with T-47D breast was greater than 100 µM each time.
As to `COc1cc(S(=O)(=O)Nc2nc(-c3ccc(N4C(=O)CSC4c4cccs4)cc3)cs2)ccc1Cl` (stereo not drawn), the results for the TGI in the experiment with LOX IMVI melanoma and in the experiment on T-47D breast were 48.2 µM and greater than 100 µM, respectively.
In the experiment with T-47D breast, `COc1cc(/C=C(\C#N)c2nc3ccccc3o2)ccc1O` registered a TGI of 46.9 µM.
In the case of `COc1ccc2cc(Oc3ccc(Cl)cc3)c(=O)oc2c1`, the TGI in the experiment with LOX IMVI melanoma and in the experiment on T-47D breast was greater than 100 µM each time.
On to `O=C(c1ccccc1)c1ccc2nc3n(c2c1)C(c1c(F)cccc1F)SC3` (stereo not drawn), for which the TGI with LOX IMVI melanoma is 36.6 µM; in the experiment on T-47D breast, 33 µM.
For `COc1ccc2nc3c([N+](=O)[O-])ccc4c3c(c2c1)N=CN4CCCN(C)C`, in that order: 8.78 µM and 27.4 µM.
Take `Cc1cc([C@H](C#N)c2nc3ccccc3[nH]2)nc(Cl)n1`: the TGI with LOX IMVI melanoma was greater than 100 µM; in the experiment on T-47D breast it was 89.5 µM.
On to `O=C(Nc1ccc(Cl)cc1)C(=O)C(C(=O)c1ccccc1-c1ccccc1)C1OC(=O)c2ccccc21` (stereo not drawn), for which the TGI was 34.2 µM in the experiment on LXFL 529 NSCLC; 55.6 µM with KM20L2 colon; greater than 100 µM with DLD-1 colon; 38.8 µM with DMS 114 small cell lung; greater than 100 µM in the experiment on DMS 273 small cell lung; 36 µM in the experiment on LOX IMVI melanoma. The results for the TGI in the experiment with SNB-78 CNS, in the experiment with M19-MEL melanoma and in the experiment on XF 498 CNS were greater than 100 µM, 41.6 µM and 36.6 µM, respectively.
As to `CN1CCC2(CC1)SC[C@H]1C(=O)N(c3ccc(Cl)cc3)C(=O)N12`, the TGI in the experiment on LOX IMVI melanoma and in the experiment on T-47D breast was greater than 100 µM each time.
Consider `O=c1[nH]c(C23CC4CC(CC(C4)C2)C3)cc2c1c(=O)oc1ccccc12`, for which the results for the TGI in the experiment with LOX IMVI melanoma and in the experiment on T-47D breast were 11.6 µM and 44.6 µM, respectively.
For `COc1cccc(OC/C(N=Cc2cccnc2)=N/NC(=O)c2ccncc2)c1`, in that order: greater than 100 µM and greater than 100 µM.
On the same counts, the results for `CCN(CC)C1Oc2cc3c(cc2C(c2ccc(OC)cc2)C1C)OCO3` (stereo not drawn) are 34.1 µM and 77 µM.
On the same counts, the results for `CC(=O)Oc1cc2c(n(C)c1=O)-c1ccccc1C2` are greater than 100 µM and greater than 100 µM.
Regarding `COC(=O)c1cc2c(o1)Sc1ccccc1NC2=O`, the TGI in the experiment on LOX IMVI melanoma and in the experiment on T-47D breast was greater than 100 µM throughout.
As to `CC1(C)CN=C(c2ccc3c(c2)Cc2cc(C4=NCC(C)(C)N4)ccc2-3)N1`, the TGI with LOX IMVI melanoma and with T-47D breast was greater than 100 µM in each case.
On to `CC12CCC3[C@@H](CC3(C)C)C(O)(CCC1=O)C2` (stereo partly drawn), for which the TGI in the experiment on LOX IMVI melanoma and in the experiment on T-47D breast was greater than 100 µM in each case.
On to `Cc1c(C)c2c(c(N)c1C#N)C(=O)N(CCc1ccccc1)C2=O`, for which the TGI with LOX IMVI melanoma and in the experiment on T-47D breast was greater than 100 µM in each case.
